Earlier results in patent publication US20040142333A1, “Novel secreted proteins and their uses” (priority 2000, published 2004).
Where a SMILES comes first, the peptide text is derived from it. [ ]: non-standard residue; d: D form. The star is where a group is joined. 4Abz = Nc1ccc(C(=O)O)cc1; NHOH = ON*

What was measured:
MMP-3 = MMP-3 (Homo sapiens, UniProt P08254); conditions: read-out: IC50 against MMP-3
MMP-1 = target: T1, MMP-1 (Homo sapiens, UniProt P03956); conditions: read-out: IC50 against MMP-1
T1 sequence (P03956 100-469): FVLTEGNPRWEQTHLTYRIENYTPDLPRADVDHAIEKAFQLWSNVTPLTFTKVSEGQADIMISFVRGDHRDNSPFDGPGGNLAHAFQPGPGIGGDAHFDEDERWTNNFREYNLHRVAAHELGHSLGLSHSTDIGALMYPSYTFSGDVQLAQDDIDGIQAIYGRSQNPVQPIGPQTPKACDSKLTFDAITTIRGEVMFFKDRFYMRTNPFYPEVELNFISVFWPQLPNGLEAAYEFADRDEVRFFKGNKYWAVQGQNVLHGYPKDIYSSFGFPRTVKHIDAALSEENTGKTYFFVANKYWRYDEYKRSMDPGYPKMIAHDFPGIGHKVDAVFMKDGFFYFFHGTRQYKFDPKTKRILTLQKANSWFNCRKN

MMP-9 = MMP-9 (Homo sapiens, UniProt P14780); conditions: read-out: IC50 against MMP-9
Sequence of MMP-9 (P14780 94-707, species assumed): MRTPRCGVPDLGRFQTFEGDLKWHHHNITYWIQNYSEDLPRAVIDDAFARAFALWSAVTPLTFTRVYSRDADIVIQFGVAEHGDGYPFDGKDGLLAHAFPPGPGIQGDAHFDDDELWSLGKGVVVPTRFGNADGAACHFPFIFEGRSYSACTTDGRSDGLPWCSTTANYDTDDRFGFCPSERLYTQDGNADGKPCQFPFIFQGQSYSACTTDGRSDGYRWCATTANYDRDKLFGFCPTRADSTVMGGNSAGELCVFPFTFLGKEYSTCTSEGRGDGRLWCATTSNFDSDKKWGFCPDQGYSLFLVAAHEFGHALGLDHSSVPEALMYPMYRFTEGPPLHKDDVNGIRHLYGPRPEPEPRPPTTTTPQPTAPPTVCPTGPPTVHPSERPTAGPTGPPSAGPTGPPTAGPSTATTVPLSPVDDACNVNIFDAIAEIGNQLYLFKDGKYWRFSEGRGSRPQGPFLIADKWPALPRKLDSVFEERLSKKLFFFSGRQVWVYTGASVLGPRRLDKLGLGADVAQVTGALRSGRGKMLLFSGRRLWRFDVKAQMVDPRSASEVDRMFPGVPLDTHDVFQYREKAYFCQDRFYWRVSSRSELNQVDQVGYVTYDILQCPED

MMP-8 = MMP-8 (Homo sapiens, UniProt P22894); conditions: read-out: IC50 against MMP-8
Sequence of MMP-8 (P22894 101-467, species assumed): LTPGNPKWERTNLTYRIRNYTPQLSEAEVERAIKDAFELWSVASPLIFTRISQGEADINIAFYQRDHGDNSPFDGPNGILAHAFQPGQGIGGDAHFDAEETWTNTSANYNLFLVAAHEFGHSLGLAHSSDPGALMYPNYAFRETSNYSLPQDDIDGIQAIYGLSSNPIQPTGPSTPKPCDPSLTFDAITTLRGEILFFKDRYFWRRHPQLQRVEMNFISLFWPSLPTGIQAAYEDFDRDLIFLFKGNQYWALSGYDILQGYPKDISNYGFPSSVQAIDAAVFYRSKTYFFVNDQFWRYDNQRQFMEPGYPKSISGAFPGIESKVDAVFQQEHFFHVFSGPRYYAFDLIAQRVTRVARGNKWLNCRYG

M24 cells = conditions: murine metastasis model
[1] = tested on: human metastatic melanoma (M24 cells)

Sequence of MMP-3 (P08254 100-477, species assumed): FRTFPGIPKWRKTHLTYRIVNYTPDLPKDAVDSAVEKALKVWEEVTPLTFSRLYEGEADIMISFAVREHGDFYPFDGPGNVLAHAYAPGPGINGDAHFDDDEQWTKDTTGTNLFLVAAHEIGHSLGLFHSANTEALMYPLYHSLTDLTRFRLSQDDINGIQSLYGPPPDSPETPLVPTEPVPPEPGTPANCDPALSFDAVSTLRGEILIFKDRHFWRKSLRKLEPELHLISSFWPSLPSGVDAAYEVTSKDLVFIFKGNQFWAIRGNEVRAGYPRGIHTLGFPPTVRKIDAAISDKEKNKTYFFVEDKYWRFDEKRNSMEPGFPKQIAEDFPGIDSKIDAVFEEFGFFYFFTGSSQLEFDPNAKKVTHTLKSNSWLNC

| Molecule | IC50 (MMP-3) [µM] | IC50 (MMP-1) [µM] | IC50 (MMP-9) [µM] | IC50 (MMP-8) [µM] | lung colonization of M24 cells (M24 cells) | cell adhesion to type I collagen, vitronectin, and fibronectin [1] |
| --- | --- | --- | --- | --- | --- | --- |
| CC(C)C[C@@H](NC(=O)[C@@H]1CCCN1C(=O)CNC(=O)c1ccc(N)cc1)C(=O)N[C@H](C)C(=O)NO [MMP inhibitor I] (H-[4Abz]GP[dL][dA]-{NHOH}) | 150 | 1 | 30 | 1 | – | – |
| contortrostatin | – | – | – | – | inhibits lung colonization | inhibit |
